# In patent US20030147850A1 (priority 2002, published 2003):
# System: vesicular stomatitis virus (VSV)
# Type: cell-based
substance,measurement,value
Disodium succinate hexahydrate,"CPE inhibition, % of IFN control",0%
